Data as given in patent US20130217871A1, “CONJUGATES COMPRISING HYDROXYALKYL STARCH AND A CYTOTOXIC AGENT AND PROCESS FOR THEIR PREPARATION” (priority 2010, published 2013).
Marks after values point to notes of the source that are not given here.

Assays:
[1] = tested on: human large cell lung carcinoma LXFL-529; experiment: Tumor growth inhibition, s.c. LXFL-529 xenograft in nude mice; format: in vivo, NMRI nu/nu mice; settings: Table 14; for Tumor volume mm^3 (d 14): day 14; for RTV T/C optimum [%]: optimum day in cell
Source text: Mouse strain: NMRI nu/nu, female Animals supplied by: Charles River, Germany Age of mice at implantation: 5-7 weeks
The tumor xenografts LXFL-529 (Fiebig H H, Berger D P, Dengler W A, Wallbrecher E, Winterhalter B R: Combined In Vitro/In Vivo Test Procedure with Human Tumor Xenografts for New Drug Development. Contrib. Oncol., Basel, Karger, 1992, Vol. 42, pp 321-351) used in this study were derived from surgical specimen from patients treated at the University Hospital in Freiburg, Germany, and directly implanted into nude mice. Prior to surgery, most of the patients had not received any chemotherapy.
Tumor fragments were obtained from xenografts in serial passage in nude mice. After removal from donor mice, tumors were cut into fragments (4-5 mm diameter) and placed in PBS until subcutaneous implantation. Recipient mice were anaesthetized by inhalation of isoflurane. A small incision was made in the back and one tumor fragment per animal was transplanted with tweezers. The mice were monitored daily.
At randomization, tumor-bearing animals were stratified according to tumor volume into treatment and vehicle (control) groups. Only animals carrying one tumor of appropriate size (approximately 50-250 mm^3) were considered for randomization. Mice were randomized when the required number of mice qualified for randomization. The day of randomization was designated as day 0, which was also the first day of dosing.
(§1) All test items were formulated in 0.9% NaCl solution and given as i.v. bolus injection despite everolimus, which was given per oral.
(§2) Measurement of tumor volume and body weight as well as calculations of relative tumor volumes were carries out analogue to the procedure described in 1.3.

[2] = Toxicity in ASPC-1 tumor-bearing nude mice (body weight change, toxic death, blood counts); format: in vivo, NMRI:nu/nu mice
Procedure: (§3) At palpable tumor size (30-100 mm^3) treatment started. The application volume was 0.2 ml/20 g mouse body weight. The test compounds, the vehicle controls and the reference compounds were all given intravenously (i.v.).
(§4) Tumor growth inhibition was used as therapeutic parameter. Additionally, body weight change was determined as signs for toxicity (particularly, potential hematological or gastrointestinal side effects).
Individual body weights of mice were determined twice weekly and mean body weight per group was related to the initial value in percent (body weight change, BWC).
On the day of necropsy mice were sacrificed by cervical dislocation and inspected for gross organ changes.

[3] = tested on: human pancreas carcinoma ASPC-1; experiment: Tumor growth inhibition, s.c. ASPC-1 xenograft in nude mice; format: in vivo, NMRI:nu/nu mice; settings: 60 mg/kg/inj. i.v.
Source text: The human pancreas carcinoma ASPC-1 was used as s.c. xenotransplantation model in immunodeficient female NMRI:nu/nu mice.
The cells were obtained from ATCC and are cryo-preserved within the EPO tumor bank. They were thawed, expanded in vitro and transplanted as cell suspension subcutaneously (s.c.) in female NMRI:nu/nu mice. The tumor line ASPC-1 is used for testing new anticancer drugs or novel therapeutic strategies. It was therefore selected for this study.
For experimental use 10^7 tumor cells/mouse from the in vitro passage were transplanted s.c. into the flank of each of 10 mice/group at day 0.
as §3, §4
Tumor diameters were measured twice weekly with a caliper. Tumor volumes were calculated according to V=(length x (width)^2)/2. For calculation of the relative tumor volume (RTV) the tumor volumes at each measurement day were related to the day of first treatment. At each measurement day the median and mean tumor volumes per group and also the treated to control (T/C) values in percent were calculated (Tables 11-13).
Descriptive statistics were performed on the data of body weight and tumor volume. […] Statistical evaluation was performed with the U-test of Mann and Whitney with a significance level of p≦0.05, using the Windows program […] 6.
All Gemcitabine-conjugates were stored in a freeze-dried form at −20° C. until use. Solutions were prepared immediately before injection by solving the conjugates in saline solution by vortexing in combination with centrifugation until a clear solution of the necessary concentration of the drug was obtained.
Gemcitabine (Gemzar®, charge A4781790 200 mg) was obtained from Lilly Deutschland GmbH and was stored in the dark at −20° C. until use. The final solution of Gemzar® was prepared immediately before injection by mixing the appropriate volume of the original stock solution (200 mg) with saline (0.9%, infusion solution, Ch.-Nr 0205A231, B. Braun Melsungen AG, Germany).

[4] = Toxicity in LXFL-529 tumor-bearing nude mice (mortality, body weight change); format: in vivo; settings: Table 14; days 0, 3, 7, 10 (20 mg/kg); 5 mice; at day 13
Procedure: All experiments were conducted according to the guidelines of the German Animal Welfare Act (Tierschutzgesetz). Animal health was examined prior to tumor implantation and randomization to ensure that only animals without any symptoms of disease were selected to enter testing procedures. During the experiments, animals were monitored daily regarding tumor burden, general condition, feed and water supply.
as §1, §2

[5] = days 0, 3 (10 mg/kg), 7, 10, 14 (15 mg/kg) p.o.
[6] = Table 13, days 7, 14, 21, day 27
[7] = days 0, 3, 7, 10 (20 mg/kg) i.v.

For `CO[C@H]1C[C@@H]2CC[C@@H](C)[C@@](O)(O2)C(=O)C(=O)N2CCCC[C@H]2C(=O)O[C@H]([C@H](C)C[C@@H]2CC[C@@H](OCCO)[C@H](OC)C2)CC(=O)[C@H](C)/C=C(\C)[C@@H](O)[C@@H](OC)C(=O)[C@H](C)C[C@H](C)/C=C/C=C/C=C/1C` [Everolimus], the “Tumor volume mm^3 (d 14)” value [1, 5] was 926.1 mm^3 and the “RTV T/C optimum [%]” value [1, 5] was 53.9 (d 14) %.
With `Nc1ccn([C@@H]2O[C@H](CO)[C@@H](O)C2(F)F)c(=O)n1` [Gemcitabine] the “Platelets × 10^6/ml (at day 13)” value ([2]; Table 11, 60 mg/kg/inj. i.v., day 13) was 915 +/− 105* × 10^6/ml, the “WBC × 10^6/ml (at day 13)” value ([2]; Table 11, white blood cell count, 60 mg/kg/inj. i.v., day 13) was 5.22 +/− 1.47* × 10^6/ml and the “Toxic death (at day)” value ([2]; Table 12, 60 mg/kg/inj. i.v., 8 treatments, 8 mice, deaths at d 15, d 18) was 2. For the same compound, the “BWC [%] (at day)” value ([2]; Table 12, body weight change, 60 mg/kg/inj. i.v., at day 17) was −15%, the “BWC [%] (at day)” value ([2]; mouse, in vivo, iv, 60 mg/kg) was −2.4 (9) % and the “RTV T/C (%) Optimum (at day)” value ([3]; Table 11, 9 injections, optimum at day 36) was 41.4%. The “Tumor volume cm^3/d 44” value ([3]; Table 11, days 9, 13, 16, 20, 23, 27, 30, 34, 40, day 44) was 0.272 +/− 0.119* cm^3, the “Tumor volume cm^3/d 28” value ([3]; Table 12, day 28) was 0.159 +/− 0.058* cm^3 and the “RTV T/C (%) Optimum (at day)” value ([3]; Table 12, optimum at day 28) was 23.6%. The “RTV T/C (%) d 27” value [3, 6] was 55.1% and the “Tumor volume cm^3/d 27” value [3, 6] was 0.480 +/− 0.317 cm^3.
For `CO[C@H]1C[C@@H]2CC[C@@H](C)[C@@](O)(O2)C(=O)C(=O)N2CCCC[C@H]2C(=O)O[C@H]([C@H](C)C[C@@H]2CC[C@@H](OC(=O)C(C)(CO)CO)[C@H](OC)C2)CC(=O)[C@H](C)/C=C(\C)[C@@H](O)[C@@H](OC)C(=O)[C@H](C)C[C@H](C)/C=C/C=C/C=C/1C` [Temsirolimus], the “Mortality (at day)” value [4] was 1 (13), the “Tumor volume mm^3 (d 14)” value [1, 7] was 1073.7 mm^3 and the “RTV T/C optimum [%]” value [1, 7] was 57.1 (d 10) %.
